PMC10033419, “Blocking NS3–NS4B interaction inhibits dengue virus in non-human primates” (Nature, 2023)

Tested on: DENV-2 RL strain
Test: Survival study, lethal DENV challenge with 4G2 antibody
Assay type: in vivo, AG129 mice

COc1cc(N[C@H](C(=O)c2c[nH]c3ccc(OC(F)(F)F)cc23)c2ccc(Cl)cc2OC)cc(S(C)(=O)=O)c1 [JNJ-1802]
% Survival (802R_1, BID, d p.i. 14): 100%
% Survival (802R_1, BID, d p.i. 15): 100%
% Survival (802R_1, BID, d p.i. 16): 100%
% Survival (802R_1, BID, d p.i. 17): 100%
% Survival (802R_1, BID, d p.i. 18): 100%
% Survival (802R_1, BID, d p.i. 19): 100%
% Survival (802R_1, BID, d p.i. 20): 100%
% Survival (802R_1, BID, d p.i. 21): 100%
% Survival (802R_1, BID, d p.i. 22): 100%
% Survival (802R_1, BID, d p.i. 23): 100%
% Survival (802R_1, BID, d p.i. 24): 100%
% Survival (802R_1, BID, d p.i. 25 = end of study): 100%
% Survival (802R_3, BID, d p.i. 0): 100%
% Survival (802R_3, BID, d p.i. 1): 100%
% Survival (802R_3, BID, d p.i. 2): 100%
% Survival (802R_3, BID, d p.i. 4): 100%
% Survival (802R_3, BID, d p.i. 5): 100%
% Survival (802R_3, BID, d p.i. 6): 100%
% Survival (802R_3, BID, d p.i. 7): 100%
% Survival (802R_3, BID, d p.i. 8): 100%
% Survival (802R_3, BID, d p.i. 9): 100%
% Survival (802R_3, BID, d p.i. 10): 100%
% Survival (802R_3, BID, d p.i. 11): 100%
% Survival (802R_3, BID, d p.i. 12): 100%
% Survival (802R_3, BID, d p.i. 13): 100%
% Survival (802R_3, BID, d p.i. 14): 100%
% Survival (802R_3, BID, d p.i. 15): 100%
% Survival (802R_3, BID, d p.i. 16): 100%
% Survival (802R_3, BID, d p.i. 17): 100%
% Survival (802R_3, BID, d p.i. 18): 100%
% Survival (802R_3, BID, d p.i. 19): 100%
% Survival (802R_3, BID, d p.i. 20): 100%
% Survival (802R_3, BID, d p.i. 21): 100%
% Survival (802R_3, BID, d p.i. 22): 90%
% Survival (802R_3, BID, d p.i. 23): 90%
% Survival (802R_3, BID, d p.i. 24): 80%
% Survival (802R_3, BID, d p.i. 25 = end of study): 80%
% Survival (802R_10, BID, d p.i. 0): 100%
% Survival (802R_10, BID, d p.i. 1): 100%
% Survival (802R_10, BID, d p.i. 2): 100%
% Survival (802R_10, BID, d p.i. 4): 100%
% Survival (802R_10, BID, d p.i. 5): 100%
% Survival (802R_10, BID, d p.i. 6): 100%
% Survival (802R_10, BID, d p.i. 7): 100%
% Survival (802R_10, BID, d p.i. 8): 100%
% Survival (802R_10, BID, d p.i. 9): 100%
% Survival (802R_10, BID, d p.i. 10): 100%
% Survival (802R_10, BID, d p.i. 11): 100%
% Survival (802R_10, BID, d p.i. 12): 100%
% Survival (802R_10, BID, d p.i. 13): 100%
% Survival (802R_10, BID, d p.i. 14): 100%
% Survival (802R_10, BID, d p.i. 15): 80%
% Survival (802R_10, BID, d p.i. 16): 80%
% Survival (802R_10, BID, d p.i. 17): 80%
% Survival (802R_10, BID, d p.i. 18): 80%
% Survival (802R_10, BID, d p.i. 19): 80%
% Survival (802R_10, BID, d p.i. 20): 80%
% Survival (802R_10, BID, d p.i. 21): 80%
% Survival (802R_10, BID, d p.i. 22): 80%
% Survival (802R_10, BID, d p.i. 23): 80%
% Survival (802R_10, BID, d p.i. 24): 80%
% Survival (802R_10, BID, d p.i. 25 = end of study): 80%
